Patent US8754100B2, “Nitrogen-containing fused heterocyclic compounds and their use as beta amyloid production inhibitors” (EISAI R&D Management Co., Ltd., priority 2009, dated 2014)

System: Aβ42 production in rat primary neuronal culture
Test: Quantification of Aβ peptide (Aβ42 ELISA) in culture of neurons from rat fetus brain
Type: cell-based
Settings: Rattus norvegicus, Neuron, 72 h; primary neuronal culture from cerebral cortex of embryonic day 18 Wistar rats; cultured three days after addition of compound; Aβ42 in medium by ELISA; read-out: Aβ42 Production reducing action IC50
Method: Quantification of Aβ Peptide in Culture of Neurons from Rat Fetus Brain
(1) Rat Primary Neuronal Culture
Primary neuronal cultures were prepared from the cerebral cortex of embryonic day 18 Wistar rats (Charles River Japan, Yokohama, Japan). Specifically, the embryos were aseptically removed from pregnant rats under ether anesthesia. The brain was isolated from the embryo and immersed in an ice-cold L-15 medium (Invitrogen Corp. Cat #11415-064, Carlsbad, Calif., USA, or SIGMA L1518, for example). The cerebral cortex was collected from the isolated brain under a stereoscopic microscope. The cerebral cortex fragments collected were enzymatically treated in an enzyme solution containing 0.25% trypsin (Invitrogen Corp. Cat #15050-065, Carlsbad, Calif., USA) and 0.01% DNase (Sigma D5025, St. Louis, Mo., USA) at 37° C. for 30 minutes to disperse the cells. Here, the enzymatic reaction was stopped by adding inactivated horse serum to the solution. The enzymatically treated solution was centrifuged at 1,500 rpm for five minutes to remove the supernatant 5 to 10 ml of a medium was added to the resulting cell mass. Neurobasal medium (Invitrogen Corp. Cat #21103-049, Carlsbad, Calif., USA) supplemented with 2% B27 supplement (Invitrogen Corp. Cat #17504-044, Carlsbad, Calif., USA), 25 μM 2-mercaptoethanol (2-ME, WAKO Cat #139-06861, Osaka, Japan), 0.5 mM L-glutamine (Invitrogen Corp. Cat #25030-081, Carlsbad, Calif., USA), and Antibiotics-Antimycotics (Invitrogen Corp. Cat #15240-062, Carlsbad, Calif., USA) was used as the medium (Neurobasal/B27/2-ME). However, the above Neurobasal medium not supplemented with 2-ME (Neurobasal/B27) was used for the assay. The cells were redispersed by mild pipetting of the cell mass to which the medium was added. The cell dispersion was filtered through a 40-μm nylon mesh (Cell Strainer, Cat #35-2340, Becton Dickinson Labware, Franklin Lakes, N.J., USA) to remove the remaining cell mass, and thus a neuronal cell suspension was obtained. The neuronal cell suspension was diluted with the medium and then plated in a volume of 100 μl/well at an initial cell density of 5×10^5 cells/cm^2 in a 96-well polystyrene culture plate pre-coated with poly-L or D-lysine (Falcon Cat #35-3075, Becton Dickinson Labware, Franklin Lakes, N.J., USA coated with poly-L-lysine using the method shown below, or BIOCOAT™ cell environments Poly-D-lysine cell ware 96-well plate, Cat #35-6461, Becton Dickinson Labware, Franklin Lakes, N.J., USA). Poly-L-lysine coating was carried out as follows. 100 μg/ml of a poly-L-lysine (SIGMA P2636, St. Louis, Mo., USA) solution was aseptically prepared with a 0.15 M borate buffer (pH 8.5). […] Thereafter, the coated 96-well polystyrene culture plate was washed with sterile water four or more times, and then dried or rinsed with sterile PBS or medium, and used for cell plating. The plated cells were cultured in the culture plate at 37° C. in 5% CO2-95% air for one day. Then, the total amount of the medium was replaced with a fresh Neurobasal/B27/2-ME medium, and then the cells were cultured for further three days.
The drug was added to the culture plate on Day 4 of culture as follows. The total amount of the medium was removed from the wells, and 180 μl/well of Neurobasal medium not containing 2-ME and containing 2% B-27 (Neurobasal/B27) was added thereto. A solution of the test compound in dimethyl sulfoxide (hereinafter abbreviated as DMSO) was diluted with Neurobasal/B27 to a concentration 10-fold higher than the final concentration. 20 μl/well of the dilution was added to and sufficiently mixed with the medium. The final DMSO concentration was 1% or less. Only DMSO was added to the control group.
The cells were cultured for three days after addition of the compound, and the total amount of the medium was collected. The resulting medium was used as an ELISA sample. […]

Row | Structure (SMILES) | IC50 [µM]
1 | COc1ccc(C(C)(C)C(F)(F)F)cc1[C@@H]1CCCn2nc(-c3ccc(-n4cnc(C)c4)c(OC)n3)nc21 [Example 331] | 0.012
2 | COc1nc(-c2cn3c(n2)[C@H](c2ccccc2C(F)(F)F)CC3)ccc1-n1cnc(C)c1 (single isomer, unassigned) [Example 104, (−)-2-[6-methoxy-5-(4-methylimidazol-1-yl)pyridin-2-yl]-7-(2-trifluoromethylphenyl)-6,7-dihydro-5H-pyrrolo[1,2-a]imidazole] | 0.091
3 | COc1nc(-c2nc3n(n2)CCC[C@H]3c2ccc(N(CC3CC3)CC(F)(F)F)cc2Cl)ccc1-n1cnc(C)c1 [Example 307] | 0.013
4 | COc1nc(-c2cn3c(n2)[C@H](c2cccc(C(C)(C)C)c2OC)CCC3)ccc1-n1cnc(C)c1 [Example 239] | 0.012
5 | COc1nc(-c2nc3n(n2)CCC[C@H]3c2ccc(N3CCCCC3)cc2Cl)ccc1-n1cnc(C)c1 [Example 295] | 0.033
6 | COc1nc(-c2nc3n(n2)CCC[C@H]3c2cc(N3CCCC3)ccc2Cl)ccc1-n1cnc(C)c1 [Example 347] | 0.03
7 | COc1nc(-c2cn3c(n2)C(c2ccccc2C(F)(F)F)CCC3)ccc1-n1cnc(C)c1 (single isomer, unassigned) [Example 102, (−)-2-[6-methoxy-5-(4-methylimidazol-1-yl)pyridin-2-yl]-8-(2-trifluoromethylphenyl)-5,6,7,8-tetrahydroimidazo[1,2-a]pyridine] | 0.055
8 | COc1nc(-c2nc3n(n2)CCC[C@@H]3c2cc(-c3ccc(C(F)(F)F)cn3)ccc2Cl)ccc1-n1cnc(C)c1 (stereo in doubt) [Example 361, (−)-8-[2-chloro-5-(5-trifluoromethylpyridine-2-yl)phenyl]-2-[6-methoxy-5-(4-methyl-1H-imidazole-1-yl)pyridine-2-yl]-5,6,7,8-tetrahydro[1,2,4]triazolo[1,5-a]pyridine] | 0.013
9 | COc1nc(-c2nc3n(n2)CCC[C@H]3c2ccc3c(c2)C(C)(C)CN3CC(F)(F)F)ccc1-n1cnc(C)c1 [Example 337] | 0.013
10 | COc1nc(-c2nc3n(n2)CCC[C@H]3c2ccc(Cl)c(N3CCCCC3)c2)ccc1-n1cnc(C)c1 [Example 287] | 0.022
11 | COc1nc(-c2nc3n(n2)CCC[C@H]3c2cc(N3CCC(C)CC3)ccc2Cl)ccc1-n1cnc(C)c1 [Example 311] | 0.012
12 | COc1nc(-c2cn3c(n2)[C@H](c2cc(C(C)(C)C#N)ccc2Cl)CCC3)ccc1-n1cnc(C)c1 [Example 245] | 0.016
13 | COc1nc(-c2nc3n(n2)CCC[C@H]3c2cc(N(CC3CC3)CC3CC3)ccc2Cl)ccc1-n1cnc(C)c1 [Example 315] | 0.004
14 | COc1nc(-c2cn3c(n2)[C@H](c2ccc(Cl)cc2C(F)(F)F)CCC3)ccc1-n1cnc(C)c1 (single isomer, unassigned) [Example 108, (−)-8-(4-chloro-2-trifluoromethylphenyl)-2-[6-methoxy-5-(4-methylimidazol-1-yl)pyridin-2-yl]-5,6,7,8-tetrahydroimidazo[1,2-a]pyridine] | 0.018
15 | COc1nc(-c2nc3n(n2)CCC[C@H]3c2cccc(C(C)(C)C)c2)ccc1-n1cnc(C)c1 [Example 193] | 0.013
16 | COc1nc(-c2nc3n(n2)CCC[C@H]3c2ccc(N3CCCCCC3)cc2)ccc1-n1cnc(C)c1 [Example 383] | 0.021
17 | COc1nc(-c2nc3n(n2)CCC[C@H]3c2cc(C(C)(C)C)c(F)cc2F)ccc1-n1cnc(C)c1 [Example 211] | 0.015
18 | COc1cc(C)c(C2CCCn3nc(-c4ccc(-n5cnc(C)c5)c(OC)n4)nc32)cc1C(C)C (single isomer, unassigned; (-)) [Example 2, (−)-8-(5-isopropyl-4-methoxy-2-methylphenyl)-2-[6-methoxy-5-(4-methylimidazol-1-yl)pyridin-2-yl]-5,6,7,8-tetrahydro[1,2,4]triazolo[1,5-a]pyridine] | 0.01

Row | Structure (SMILES) | IC50 [µM]
19 | COc1nc(-c2nc3n(n2)CCC[C@H]3c2cc(C(C)(C)C)ccc2F)ccc1-n1cnc(C)c1 [Example 197] | 0.013
20 | COc1nc(-c2cn3c(n2)[C@H](c2ccc(Br)cc2C(F)(F)F)CCC3)ccc1-n1cnc(C)c1 [Example 100, (−)-8-(4-bromo-2-trifluoromethylphenyl)-2-[6-methoxy-5-(4-methylimidazol-1-yl)pyridin-2-yl]-5,6,7,8-tetrahydroimidazo[1,2-a]pyridine] | 0.009
21 | COc1nc(-c2cn3c(n2)[C@H](c2ccc(C(C)(C)C)cc2)CCC3)ccc1-n1cnc(C)c1 [Example 242] | 0.009
22 | COc1cc([C@@H]2CCCn3nc(-c4ccc(-n5cnc(C)c5)c(OC)n4)nc32)cc(C(C)(C)C)c1 [Example 187] | 0.011
23 | COc1nc(-c2nc3n(n2)CCC[C@H]3c2ccc(N(CC(F)(F)F)C3CC3)cc2Cl)ccc1-n1cnc(C)c1 [Example 309] | 0.014
24 | COc1nc(-c2nc3n(n2)CCC[C@@H]3c2cc(C(C)(C)OC)ccc2Cl)ccc1-n1cnc(C)c1 [Example 267, (−)-2-[6-methoxy-5-(4-methyl-1H-imidazol-1-yl)pyridin-2-yl]-8-(2-chloro-5-(1-methoxy-1-methylethyl)phenyl)-5,6,7,8-tetrahydro[1,2,4]triazolo[1,5-a]pyridine] | 0.029
25 | COc1nc(-c2nc3n(n2)CCC[C@H]3c2cc(-c3ccccc3)ccc2Cl)ccc1-n1cnc(C)c1 [Example 359] | 0.016
26 | COc1cc([C@@H]2CCCn3nc(-c4ccc(-n5cnc(C)c5)c(OC)n4)nc32)ccc1C(C)(C)C [Example 191] | 0.007
27 | COc1nc(-c2nc3n(n2)CCC[C@H]3c2cc(N3CC(C)CC(C)C3)ccc2Cl)ccc1-n1cnc(C)c1 (stereo partly shown) [Example 319] | 0.01
28 | COc1cc([C@@H]2CCCn3cc(-c4ccc(-n5cnc(C)c5)c(OC)n4)nc32)ccc1C(C)(C)C [Example 240] | 0.005
29 | COc1nc(-c2cn3c(n2)[C@H](c2ccc(C(C)(C)C#N)cc2Cl)CCC3)ccc1-n1cnc(C)c1 [Example 246] | 0.055
30 | COc1nc(-c2nc3n(n2)CCC[C@H]3c2cc(N(CC3CC3)CC(F)(F)F)ccc2Cl)ccc1-n1cnc(C)c1 [Example 313] | 0.006
31 | COc1nc(-c2nc3n(n2)CCC[C@H]3c2cc(C(C)(C)C#N)c(Cl)cc2Cl)ccc1-n1cnc(C)c1 [Example 225] | 0.028
32 | COc1nc(-c2nc3n(n2)CCC[C@H]3c2cc(N3CCCCC3)ccc2Br)ccc1-n1cnc(C)c1 [Example 279] | 0.008
33 | COc1nc(-c2nc3n(n2)CCC[C@H]3c2cc(N3CCC(C(F)(F)F)CC3)ccc2Cl)ccc1-n1cnc(C)c1 [Example 317] | 0.015
34 | COc1nc(-c2nc3n(n2)CCC[C@H]3c2cc(C(C)(C)C)ccc2Br)ccc1-n1cnc(C)c1 [Example 199] | 0.006
35 | COc1nc(-c2cn3c(n2)[C@H](c2cc(Br)ccc2C(F)(F)F)CCC3)ccc1-n1cnc(C)c1 [Example 250] | 0.013

Same assay, conditions: primary neuronal culture from cerebral cortex of embryonic day 18 Wistar rats; cultured three days after addition of compound; Aβ42 in medium by ELISA; read-out: Aβ42 Production reducing action IC50

Row | Structure (SMILES) | IC50 [µM]
36 | COc1nc(-c2nc3n(n2)CCC[C@H]3c2ccc(Br)cc2C(F)(F)F)ccc1-n1cnc(C)c1 [Example 42, −8-4-bromo-2-trifluoromethylphenyl-2-[6-methoxy-5-(4-methylimidazol-1-yl)pyridin-2-yl]-5,6,7,8-tetrahydro[1,2,4]triazolo[1,5-a]pyridine] | 0.052
37 | COc1ccc([C@@H]2CCCn3nc(-c4ccc(-n5cnc(C)c5)c(OC)n4)nc32)cc1C(C)(C)C [Example 59] | 0.007
